Data as given in patent publication US20090227619A1, “Harmine derivatives, intermediates used in their preparations, preparation processes and use therefo” (priority 2003, published 2009).
Read-outs that look alike come from different tables or passages of the source.

Key:
[1] = tested on: PLA-801; experiment: In vitro cytotoxicity, IC50 by MTT method, PLA-801; type: cell-based
Procedure: (§1) Culture medium powder RPMI1640 was dissolved in a proper amount of tri-distilled water according to the instruction of the product. […] It was the basic culture solution. The complete culture solution was added with FBS having a final concentration of 10%, 100 U/ml penicillin and 100 µg/ml streptomycin. The solution was fully stirred by a magnetic blender, and the pH of the solution was adjusted to 6.8-7.0. The volume was kept constant. After being filtered and disinfected, the solution was kept into several containers which were sealed and stored at 4° C.
(§2) The cells were placed in a culture dish followed by the addition of complete culture liquid RPMI1640 and then cultured in a incubator comprising 5% CO2 at 37° C. In the exponential growth phase, the cells grew vigorously. If the culture liquid became yellow, the liquid should be replaced instantly.
(§3) The cells, at a concentration of 10^5/ml, were inoculated at a 96-pore culture plate. In each pore, 100 μl cells were inoculated. The cells were placed in a CO2 incubator until the cells were in the logarithmic growth phase. The samples to be tested were added according to the preset concentration gradient. For each gradient, the test was conducted at least three times. An equivalent amount of solvent for dissolving the samples was added in the control group. After 48 h of culture, each pore was added 20 μl MTT (5 mg/ml). The cells were cultured at 37° C. for 4 h. After the supernatant was carefully removed, 100 μl DMSO was added in each pore. The plate was agitated for about 10 minutes such that the precipitates were dissolved. After that, OD value was identified with a Microplate Reader at the wavelength of 490 nm. The survival rate of the cells at various concentrations was calculated according to the following formula:
(§4) Survival rate %=average OD value of the sample group/average OD value of the control group×100%
(§5) Plots of log survival rate of the cells vs. concentration of the medicament were constructed, and the IC50 value of each sample was calculated according to graphing methods.

[2] = tested on: Lewis lung cancer; conditions: for Body weight of the animals, beginning, First time / Inhibition rate, First time / Weight of the tumor X ± SD, First time / Body weight of the animals, end, First time / Inhibition rate (%) Lewis cancer: Lewis lung cancer; for Body weight of the animals, end, First time: ip × 10qd; for Inhibition rate (%) Lewis cancer: comparison table 43, in vivo; for Anti-tumor activity compared with harmine (compound 1): Lewis lung cancer in mice, among 22 compounds tested;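 as to all read-outs here: mice implanted subcutaneously in the axilla with Lewis lung tumor cells, treated starting the following day, killed roughly three weeks after implantation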
[3] = tested on: Hela; experiment: In vitro cytotoxicity, IC50 by MTT method, Hela; type: cell-based; conditions: Homo sapiens
Procedure: as §1, §2, §3, §4, §5

[4] = tested on: NIH3T3; experiment: In vitro cytotoxicity, IC50 by MTT method, NIH3T3; type: cell-based; conditions: Mus musculus
Procedure: as §1, §2, §3, §4, §5

[5] = tested on: Lovo; experiment: In vitro cytotoxicity, IC50 by MTT method, Lovo; type: cell-based; conditions: Homo sapiens
Procedure: as §1, §2, §3, §4, §5

[6] = tested on: S180 sarcoma; conditions: S180 sarcoma; for Body weight of the animals, beginning, First time / Body weight of the animals, end, First time / Inhibition rate, First time / Weight of the tumor X ± SD, First time: ip × 10qd; for Inhibition rate (%) S180 sarcomata: comparison table 43, in vivo
[7] = tested on: HepG2; experiment: In vitro cytotoxicity, IC50 by MTT method, HepG2; type: cell-based, human; conditions: Homo sapiens
Procedure: as §1, §2, §3, §4, §5

[8] = tested on: Bel-7402; experiment: In vitro cytotoxicity, IC50 by MTT method, Bel-7402; type: cell-based; conditions: Homo sapiens, Bel-7402
Procedure: as §1, §2, §3, §4, §5

[9] = tested on: BGC-823; experiment: In vitro cytotoxicity, IC50 by MTT method, BGC-823; type: cell-based; conditions: Homo sapiens, BGC-823
Procedure: as §1, §2, §3, §4, §5

Structure (SMILES): CCOC(=O)c1cc2c(cn1)[nH]c1ccccc12 [Compound 10, ethyl β-carboline-3-carboxylate]
- IC50 [1]: 280 µM
- Body weight of the animals, beginning, First time ([2]; Dosage 50, ip × 10qd): 20.1 g
- Inhibition rate, First time ([2]; Dosage 50, ip × 10qd): 32.92%
- Weight of the tumor X ± SD, First time ([2]; Dosage 50, ip × 10qd): 1.63 ± 0.16 g
- Body weight of the animals, end, First time ([2]; Dosage 100 (mg/ml)): 23.6 g
- Body weight of the animals, beginning, First time ([2]; Dosage 100, ip × 10qd): 20.3 g
- Inhibition rate, First time ([2]; Dosage 100, ip × 10qd): 41.98%
- Weight of the tumor X ± SD, First time ([2]; Dosage 100, ip × 10qd): 1.41 ± 0.21 g
- Inhibition rate (%) Lewis cancer [2]: 41.98%
- IC50 ([3]; HeLa): 60 µM
- IC50 ([4]; NIH3T3): 80 µM
- IC50 ([5]; LoVo): 1010 µM
- Body weight of the animals, beginning, First time ([6]; Dosage 50 (mg/ml)): 20.0 g
- Body weight of the animals, end, First time ([6]; Dosage 50 (mg/ml)): 26.4 g
- Inhibition rate, First time ([6]; Dosage 50 (mg/ml)): 30.92%
- Weight of the tumor X ± SD, First time ([6]; Dosage 50 (mg/ml)): 1.81 ± 0.20 g
- Body weight of the animals, beginning, First time ([6]; Dosage 100 (mg/ml)): 20.1 g
- Body weight of the animals, end, First time ([6]; Dosage 100 (mg/ml)): 25.5 g
- Inhibition rate, First time ([6]; Dosage 100 (mg/ml)): 40.46%
- Weight of the tumor X ± SD, First time ([6]; Dosage 100 (mg/ml)): 1.56 ± 0.17 g
- Inhibition rate (%) S180 sarcomata [6]: 40.46%
- IC50 ([7]; HepG2): 1250 µM
- IC50 [8]: 2910 µM
- IC50 [9]: 1280 µM

Structure (SMILES): COC(=O)c1cc2c([nH]c3ccccc32)c(-c2ccccc2)n1 [Compound 14, methyl 1-phenyl-β-carboline-3-carboxylate]
- IC50 ([1]; PLA-801, MTT, read-out: IC50): 1900 µM
- Anti-tumor activity compared with harmine (compound 1) [2]: a little worse than or equivalent to that of harmines
- Body weight of the animals, end, First time ([2]; Dosage 50 (mg/ml)): 23.8 g
- Body weight of the animals, beginning, First time ([2]; Dosage 50, ip × 10qd): 20.1 g
- Inhibition rate, First time ([2]; Dosage 50, ip × 10qd): 27.57%
- Weight of the tumor X ± SD, First time ([2]; Dosage 50, ip × 10qd): 1.76 ± 0.25 g
- Body weight of the animals, end, First time ([2]; Dosage 100 (mg/ml)): 23.1 g
- Body weight of the animals, beginning, First time ([2]; Dosage 100, ip × 10qd): 20.7 g
- Inhibition rate, First time ([2]; Dosage 100, ip × 10qd): 34.16%
- Weight of the tumor X ± SD, First time ([2]; Dosage 100, ip × 10qd): 1.60 ± 0.19 g
- Inhibition rate (%) Lewis cancer [2]: 32.06%
- IC50 ([3]; Hela, MTT, read-out: IC50): 320 µM
- IC50 ([4]; NIH3T3, MTT, read-out: IC50): 490 µM
- IC50 ([5]; Lovo, MTT, read-out: IC50): 2480 µM
- Body weight of the animals, beginning, First time ([6]; Dosage 50 (mg/ml)): 19.8 g
- Body weight of the animals, end, First time ([6]; Dosage 50 (mg/ml)): 26.7 g
- Inhibition rate, First time ([6]; Dosage 50 (mg/ml)): 24.43%
- Weight of the tumor X ± SD, First time ([6]; Dosage 50 (mg/ml)): 1.98 ± 0.28 g
- Body weight of the animals, beginning, First time ([6]; Dosage 100 (mg/ml)): 19.9 g
- Body weight of the animals, end, First time ([6]; Dosage 100 (mg/ml)): 25.5 g
- Inhibition rate, First time ([6]; Dosage 100 (mg/ml)): 32.06%
- Weight of the tumor X ± SD, First time ([6]; Dosage 100 (mg/ml)): 1.78 ± 0.20 g
- Inhibition rate (%) S180 sarcomata [6]: 34.16%
- IC50 ([7]; HepG2, MTT, read-out: IC50): 1180 µM
- IC50 ([8]; BeI7402, MTT, read-out: IC50): > 5000 µM
- IC50 ([9]; BGC823, MTT, read-out: IC50): 1680 µM

Structure (SMILES): COC(=O)c1cc2c([nH]c3ccccc32)c(-c2ccc(OC)cc2)n1 [Compound 15, methyl 1-(4-methoxyphenyl)-β-carboline-3-carboxylate]
- IC50 ([1]; PLA-801, MTT, read-out: IC50): > 3000 µM
- Anti-tumor activity compared with harmine (compound 1) [2]: a little worse than or equivalent to that of harmines
- Body weight of the animals, end, First time ([2]; Dosage 50 (mg/ml)): 23.9 g
- Body weight of the animals, beginning, First time ([2]; Dosage 50, ip × 10qd): 20.4 g
- Inhibition rate, First time ([2]; Dosage 50, ip × 10qd): 25.51%
- Weight of the tumor X ± SD, First time ([2]; Dosage 50, ip × 10qd): 1.81 ± 0.28 g
- Body weight of the animals, end, First time ([2]; Dosage 100 (mg/ml)): 24.0 g
- Body weight of the animals, beginning, First time ([2]; Dosage 100, ip × 10qd): 20.3 g
- Inhibition rate, First time ([2]; Dosage 100, ip × 10qd): 32.10%
- Weight of the tumor X ± SD, First time ([2]; Dosage 100, ip × 10qd): 1.65 ± 0.17 g
- Inhibition rate (%) Lewis cancer [2]: 35.50%
- IC50 ([3]; Hela, MTT, read-out: IC50): > 3000 µM
- IC50 ([4]; NIH3T3, MTT, read-out: IC50): > 3000 µM
- IC50 ([5]; Lovo, MTT, read-out: IC50): > 3000 µM
- Body weight of the animals, beginning, First time ([6]; Dosage 50 (mg/ml)): 19.8 g
- Body weight of the animals, end, First time ([6]; Dosage 50 (mg/ml)): 26.4 g
- Inhibition rate, First time ([6]; Dosage 50 (mg/ml)): 23.66%
- Weight of the tumor X ± SD, First time ([6]; Dosage 50 (mg/ml)): 2.00 ± 0.16 g
- Body weight of the animals, beginning, First time ([6]; Dosage 100 (mg/ml)): 19.9 g
- Body weight of the animals, end, First time ([6]; Dosage 100 (mg/ml)): 26.0 g
- Inhibition rate, First time ([6]; Dosage 100 (mg/ml)): 35.50%
- Weight of the tumor X ± SD, First time ([6]; Dosage 100 (mg/ml)): 1.69 ± 0.16 g
- Inhibition rate (%) S180 sarcomata [6]: 32.10%
- IC50 ([7]; HepG2, MTT, read-out: IC50): > 3000 µM
- IC50 ([8]; BeI7402, MTT, read-out: IC50): > 3000 µM
- IC50 ([9]; BGC823, MTT, read-out: IC50): > 3000 µM

Structure (SMILES): CCOC(=O)c1cc2c3ccccc3n(CC)c2cn1 [Compound 31, ethyl 9-ethyl-β-carboline-3-carboxylate]
- IC50 ([1]; PLA-801 cell strain, read-out: IC50 PLA-801): 170 µM
- Body weight of the animals, end, First time ([2]; Dosage 50 (mg/ml)): 24.3 g
- Body weight of the animals, beginning, First time ([2]; Dosage 50, ip × 10qd): 20.6 g
- Inhibition rate, First time ([2]; Dosage 50, ip × 10qd): 30.04%
- Weight of the tumor X ± SD, First time ([2]; Dosage 50, ip × 10qd): 1.70 ± 0.12 g
- Body weight of the animals, end, First time ([2]; Dosage 100 (mg/ml)): 23.7 g
- Body weight of the animals, beginning, First time ([2]; Dosage 100, ip × 10qd): 20.5 g
- Inhibition rate, First time ([2]; Dosage 100, ip × 10qd): 36.21%
- Weight of the tumor X ± SD, First time ([2]; Dosage 100, ip × 10qd): 1.55 ± 0.22 g
- Inhibition rate (%) Lewis cancer [2]: 37.02%
- IC50 ([3]; Hela cell strain, read-out: IC50 Hela): 140 µM
- IC50 ([4]; NIH3T3 cell strain, read-out: IC50 NIH3T3): 100 µM
- IC50 ([5]; Lovo cell strain, read-out: IC50 Lovo): 70 µM
- Body weight of the animals, beginning, First time ([6]; Dosage 50 (mg/ml)): 19.7 g
- Body weight of the animals, end, First time ([6]; Dosage 50 (mg/ml)): 26.7 g
- Inhibition rate, First time ([6]; Dosage 50 (mg/ml)): 28.04%
- Weight of the tumor X ± SD, First time ([6]; Dosage 50 (mg/ml)): 1.88 ± 0.21 g
- Body weight of the animals, beginning, First time ([6]; Dosage 100 (mg/ml)): 20.0 g
- Body weight of the animals, end, First time ([6]; Dosage 100 (mg/ml)): 26.1 g
- Inhibition rate, First time ([6]; Dosage 100 (mg/ml)): 37.02%
- Weight of the tumor X ± SD, First time ([6]; Dosage 100 (mg/ml)): 1.65 ± 0.16 g
- Inhibition rate (%) S180 sarcomata [6]: 36.21%
- IC50 ([7]; HepG2 cell strain, read-out: IC50 HepG2): 110 µM
- IC50 ([8]; Bel7402 cell strain, read-out: IC50 Bel7402): 260 µM
- IC50 ([9]; BGC823 cell strain, read-out: IC50 BGC823): 140 µM
